According to the supplement of paper PMC5908809:

Legend:
[1] = tested on: normal NK cells expanded with K562-aAPC; assay: percent inhibition of viability; higher = more inhibition; conditions: 72 h, IL-2 2.5 ng/mL
Experimental: (§1)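 Drug sensitivity and resistance testing on K562-aAPC-expanded normal NK cells: 5 concentrations (10-fold steps over a 10,000-fold range), 72 h at 37 °C, viability by CellTiter-Glo normalised to DMSO and benzethonium chloride controls; DSS from the fitted curve.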

[2] = tested on: normal NK cells expanded with K562-aAPC; assay: drug sensitivity score (DSS) (DSS units); higher = more sensitive; extreme values may be limits of the assay; conditions: 72 h; IL-2 2.5 ng/mL
Experimental: as §1

[3] = tested on: NK-YS (IL-2 2.5 ng/mL); assay: percent inhibition of viability; higher = more inhibition; conditions: 72 h
[4] = tested on: normal primary NK cells, pool 2 (3 donors) (IL-2 2.5 ng/mL); assay: as above; conditions: 72 h
[5] = tested on: YT (IL-2 2.5 ng/mL); assay: as above; conditions: 72 h
[6] = tested on: normal primary NK cells, pool 3 (3 donors) (IL-2 2.5 ng/mL); assay: as above; conditions: 72 h
[7] = tested on: SNK-6 (IL-2 2.5 ng/mL); assay: as above; conditions: 72 h
[8] = tested on: KAI3 (IL-2 2.5 ng/mL); assay: as above; conditions: 72 h
[9] = tested on: NKL (IL-2 2.5 ng/mL); assay: as above; conditions: 72 h
[10] = tested on: KHYG-1 (IL-2 2.5 ng/mL); assay: as above; conditions: 72 h
[11] = tested on: IMC-1 (IL-2 20 ng/mL); assay: as above; conditions: 72 h
[12] = tested on: normal primary NK cells, pool 1 (3 donors) (IL-2 2.5 ng/mL); assay: as above; conditions: 72 h
[13] = tested on: DERL-7 (IL-2 2.5 ng/mL); assay: as above; conditions: 72 h
[14] = tested on: NK-92 (IL-2 2.5 ng/mL); assay: as above; conditions: 72 h
[15] = tested on: normal primary NK cells, pool 1 (3 donors), resting (IL-2 0 ng/mL); assay: as above; conditions: 72 h
[16] = tested on: NK-YS (IL-2 2.5 ng/mL); assay: drug sensitivity score (DSS) (DSS units); higher = more sensitive; extreme values may be limits of the assay; conditions: 72 h
[17] = tested on: normal primary NK cells, pool 2 (3 donors) (IL-2 2.5 ng/mL); assay: as above; conditions: 72 h
[18] = tested on: YT (IL-2 2.5 ng/mL); assay: as above; conditions: 72 h
[19] = tested on: normal primary NK cells, pool 3 (3 donors) (IL-2 2.5 ng/mL); assay: as above; conditions: 72 h
[20] = tested on: SNK-6 (IL-2 2.5 ng/mL); assay: as above; conditions: 72 h
[21] = tested on: KAI3 (IL-2 2.5 ng/mL); assay: as above; conditions: 72 h
[22] = tested on: NKL (IL-2 2.5 ng/mL); assay: as above; conditions: 72 h
[23] = tested on: KHYG-1 (IL-2 2.5 ng/mL); assay: as above; conditions: 72 h
[24] = tested on: IMC-1 (IL-2 20 ng/mL); assay: as above; conditions: 72 h
[25] = tested on: normal primary NK cells, pool 1 (3 donors) (IL-2 2.5 ng/mL); assay: as above; conditions: 72 h
[26] = tested on: DERL-7 (IL-2 2.5 ng/mL); assay: as above; conditions: 72 h
[27] = tested on: NK-92 (IL-2 2.5 ng/mL); assay: as above; conditions: 72 h
[28] = tested on: normal primary NK cells, pool 1 (3 donors), resting (IL-2 0 ng/mL); assay: as above; conditions: 72 h

COCC1(CO)C(=O)C2CCN1CC2 (configuration not stated) [APR-246] (max concentration tested 10000 nM)
percent inhibition of viability [%]
Conditions | 1 nM | 10 nM | 100 nM | 1000 nM | 10000 nM
[1] | -2.16 | 1.78 | 5.44 | 14.3 | 66.4
[3] | -7.21 | 1.41 | 3.46 | 5.78 | 20.9
[4] | -11.3 | -4.04 | 11.3 | 77 | 96
[5] | -1.79 | -3.13 | 4.5 | 1.6 | 7.67
[6] | -9.08 | -4.43 | 12.5 | 73 | 98
[7] | 4.82 | 6.66 | 11.8 | 20.5 | 26.2
[8] | -1.81 | 0.4 | -2.31 | 2.12 | 16.5
[9] | -3.21 | -5.06 | 5.12 | 11 | 36.4
[10] | -5.21 | -0.64 | -2.81 | 5.38 | 7.34
[11] | -7.37 | -2.9 | -3.59 | 8.76 | 9.03
[12] | 0.39 | -11.5 | 5.91 | 70.5 | 98
[13] | 4.22 | 1.94 | 4.99 | -6.45 | 12.9
[14] | -5.03 | 9.77 | 10.8 | 10.9 | 10.2
[15] | -1.14 | -6.72 | 13.5 | 82.8 | 91.7

Conditions | drug sensitivity score
[2] | 5.95
[16] | 1.17
[17] | 15.7
[18] | 0
[19] | 15.2
[20] | 3.96
[21] | 0.58
[22] | 3.01
[23] | 0
[24] | 0
[25] | 14.2
[26] | 0.03
[27] | 0.65
[28] | 16.9

O=C(Nc1cccc(Cl)c1)Nc1ncc(CCNc2ncnc3ccsc23)s1 [SNS-314] (max concentration tested 1000 nM)
percent inhibition of viability [%]
Conditions | 0.1 nM | 1 nM | 10 nM | 100 nM | 1000 nM
[1] | -6.43 | -10 | 4.3 | 43.3 | 42.2
[3] | -8.15 | -3.63 | -0.24 | 70.4 | 75.2
[4] | -8.39 | 1.8 | 4.68 | 5.41 | 5.48
[5] | -4.76 | -1.46 | 7.82 | 19 | 37.3
[6] | -5.85 | 0.22 | 7.29 | 3.37 | 8.78
[7] | -12.7 | -23.7 | 33.2 | 59.5 | 70
[8] | -2.71 | -1.61 | 20.4 | 30.6 | 47.3
[9] | -9.51 | -8.35 | 6.03 | 23.5 | 42.8
[10] | -7.32 | -4.71 | 35.4 | 53.6 | 68
[11] | -9.62 | -5.56 | 14.2 | 10.2 | 70.4
[12] | 1.31 | 16.9 | 9.79 | 4.5 | 10.9
[13] | -2.96 | -1.43 | 3.21 | 69.3 | 58.4
[14] | -4.05 | -1.72 | 20.3 | 45.2 | 83.4
[15] | 3.09 | 19.6 | 8.47 | 17.5 | 20.9

Conditions | drug sensitivity score
[2] | 8.52
[16] | 13
[17] | 0
[18] | 3.89
[19] | 0
[20] | 17.1
[21] | 7.77
[22] | 4.85
[23] | 15
[24] | 5.61
[25] | 0
[26] | 13.1
[27] | 11.2
[28] | 3.41

Cc1cc(C(=O)NOCCO)c(Nc2ccc(I)cc2F)n(C)c1=O [AZD-8330] (max concentration tested 10000 nM)
percent inhibition of viability [%]
Conditions | 1 nM | 10 nM | 100 nM | 1000 nM | 10000 nM
[1] | 0.89 | -5.14 | 2.35 | 1.49 | 5.67
[3] | 1.92 | 6.63 | 7.16 | 17 | 13.5
[4] | -6.21 | -3.9 | 6.25 | 1.91 | 6.61
[5] | 1.8 | 1.88 | -1.55 | 5.74 | 3.13
[6] | -7.05 | -12 | -3.49 | 3.69 | 8.96
[7] | -15.8 | -23.2 | -25.2 | -18.2 | -8.48
[8] | 6.6 | 16.3 | 20.9 | 25.5 | 21.5
[9] | 9.59 | 36 | 58.2 | 70.4 | 65
[10] | 4.36 | 28.4 | 50.2 | 60.9 | 59.9
[11] | -6.12 | -4.24 | -7.8 | -3.57 | 1.54
[12] | 1.16 | 3.34 | 2.94 | 11.4 | 20.3
[13] | 10.5 | 19.5 | 39.8 | 44.6 | 49.1
[14] | -20.4 | -31.8 | -23.9 | -11.1 | -34
[15] | -12.3 | -10.7 | -6.76 | 10.4 | 33.8

Conditions | drug sensitivity score
[2] | 0
[16] | 1.5
[17] | 0
[18] | 0
[19] | 0
[20] | 0
[21] | 0
[22] | 24.7
[23] | 20.8
[24] | 0
[25] | 1.33
[26] | 15.5
[27] | 0
[28] | 3.07
